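In this assay, cells in 96-well plates receive the compound at five concentrations for 48 hours. Endpoints are linearly interpolated between the surrounding concentrations. At the GI50, growth is halved. Definition used: TGI = concentration required for complete inhibition of growth.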
Columns and labels:
Test in all cases: NCI anticancer screen, dose series, 48 h
HT29 colon = tested on: HT29 colon
SF-295 CNS = tested on: SF-295 CNS
NCI/ADR-RES ovarian = tested on: NCI/ADR-RES ovarian
NCI-H226 lung = tested on: NCI-H226 lung
A498 renal = tested on: A498 renal
HS 578T breast = tested on: HS 578T breast
UACC-257 melanoma = tested on: UACC-257 melanoma
IGROV1 ovarian = tested on: IGROV1 ovarian
SNB-19 CNS = tested on: SNB-19 CNS
SK-MEL-28 melanoma = tested on: SK-MEL-28 melanoma
DU-145 prostate = tested on: DU-145 prostate
OVCAR-5 ovarian = tested on: OVCAR-5 ovarian
TK-10 renal = tested on: TK-10 renal
HL-60(TB) leukemia = tested on: HL-60(TB) leukemia
SW-620 colon = tested on: SW-620 colon
NCI-H23 lung = tested on: NCI-H23 lung
ACHN renal = tested on: ACHN renal
EKVX NSCLC = tested on: EKVX NSCLC
RXF 393 renal = tested on: RXF 393 renal
CCRF-CEM leukemia = tested on: CCRF-CEM leukemia
MOLT-4 leukemia = tested on: MOLT-4 leukemia
UO-31 renal = tested on: UO-31 renal
SK-OV-3 ovarian = tested on: SK-OV-3 ovarian
HCC-2998 colon = tested on: HCC-2998 colon
HCT-15 colon = tested on: HCT-15 colon
K-562 leukemia = tested on: K-562 leukemia
NCI-H460 lung = tested on: NCI-H460 lung
SNB-75 CNS = tested on: SNB-75 CNS
UACC-62 melanoma = tested on: UACC-62 melanoma
NCI-H522 lung = tested on: NCI-H522 lung
OVCAR-8 ovarian = tested on: OVCAR-8 ovarian
SF-539 CNS = tested on: SF-539 CNS
U251 CNS = tested on: U251 CNS
OVCAR-4 ovarian = tested on: OVCAR-4 ovarian
MDA-MB-435 = tested on: MDA-MB-435
KM12 colon = tested on: KM12 colon
HOP-92 NSCLC = tested on: HOP-92 NSCLC
RPMI-8226 leukemia = tested on: RPMI-8226 leukemia
SR leukemia = tested on: SR leukemia
MCF7 breast = tested on: MCF7 breast
HCT-116 colon = tested on: HCT-116 colon
SK-MEL-5 melanoma = tested on: SK-MEL-5 melanoma
BT-549 breast = tested on: BT-549 breast
MALME-3M melanoma = tested on: MALME-3M melanoma

Cc1nn(-c2ccccc2)cc1/C=N/Nc1nc(Nc2ccccc2)nc(Nc2ccc(S(N)(=O)=O)cc2)n1
GI50 (HT29 colon): 2.88 µM
TGI (HT29 colon): > 100 µM
GI50 (SF-295 CNS): 2.23 µM
TGI (SF-295 CNS): 5.94 µM
GI50 (NCI/ADR-RES ovarian): > 100 µM
TGI (NCI/ADR-RES ovarian): > 100 µM
GI50 (NCI-H226 lung): 1.85 µM
TGI (NCI-H226 lung): 4.34 µM
GI50 (A498 renal): 1.71 µM
TGI (A498 renal): 3.39 µM
GI50 (HS 578T breast): 2.77 µM
TGI (HS 578T breast): 8.1 µM
GI50 (UACC-257 melanoma): 2.5 µM
TGI (UACC-257 melanoma): 7.43 µM
GI50 (IGROV1 ovarian): 2.59 µM
TGI (IGROV1 ovarian): 6.7 µM
GI50 (SNB-19 CNS): 3.44 µM
TGI (SNB-19 CNS): > 100 µM
GI50 (SK-MEL-28 melanoma): 1.8 µM
TGI (SK-MEL-28 melanoma): 3.46 µM
GI50 (DU-145 prostate): 3.06 µM
TGI (DU-145 prostate): 9.48 µM
GI50 (OVCAR-5 ovarian): 2.06 µM
TGI (OVCAR-5 ovarian): 5.04 µM
GI50 (TK-10 renal): 1.48 µM
TGI (TK-10 renal): 3.5 µM
GI50 (HL-60(TB) leukemia): 2.24 µM
TGI (HL-60(TB) leukemia): 7.67 µM
GI50 (SW-620 colon): 3.38 µM
GI50 (NCI-H23 lung): 1.75 µM
TGI (NCI-H23 lung): 3.62 µM
GI50 (ACHN renal): 1.9 µM
TGI (ACHN renal): 3.57 µM
GI50 (EKVX NSCLC): 2 µM
TGI (EKVX NSCLC): 5.09 µM
GI50 (RXF 393 renal): 1.77 µM
TGI (RXF 393 renal): 3.39 µM
GI50 (CCRF-CEM leukemia): 2.09 µM
TGI (CCRF-CEM leukemia): > 100 µM
GI50 (MOLT-4 leukemia): 2.29 µM
TGI (MOLT-4 leukemia): > 100 µM
GI50 (UO-31 renal): 1.72 µM
TGI (UO-31 renal): 3.54 µM
GI50 (SK-OV-3 ovarian): 2.93 µM
TGI (SK-OV-3 ovarian): 6.61 µM
GI50 (HCC-2998 colon): 1.88 µM
TGI (HCC-2998 colon): 3.63 µM
GI50 (HCT-15 colon): 2.67 µM
TGI (HCT-15 colon): > 100 µM
GI50 (K-562 leukemia): 2.63 µM
TGI (K-562 leukemia): > 100 µM
GI50 (NCI-H460 lung): 2.77 µM
TGI (NCI-H460 lung): 7.38 µM
GI50 (SNB-75 CNS): 2.69 µM
TGI (SNB-75 CNS): 8.72 µM
GI50 (UACC-62 melanoma): 1.78 µM
TGI (UACC-62 melanoma): 3.57 µM
GI50 (NCI-H522 lung): 2.66 µM
TGI (NCI-H522 lung): 8.27 µM
GI50 (OVCAR-8 ovarian): 2.05 µM
TGI (OVCAR-8 ovarian): > 100 µM
GI50 (SF-539 CNS): 1.71 µM
TGI (SF-539 CNS): 3.27 µM
GI50 (U251 CNS): 3.65 µM
TGI (U251 CNS): > 100 µM
GI50 (OVCAR-4 ovarian): 2.56 µM
TGI (OVCAR-4 ovarian): 7.32 µM
GI50 (MDA-MB-435): 1.77 µM
TGI (MDA-MB-435): 3.46 µM
GI50 (KM12 colon): 2.84 µM
TGI (KM12 colon): 8.33 µM
GI50 (HOP-92 NSCLC): 2.44 µM
TGI (HOP-92 NSCLC): 5.44 µM
GI50 (RPMI-8226 leukemia): 1.66 µM
TGI (RPMI-8226 leukemia): 5.41 µM
GI50 (SR leukemia): 2.45 µM
TGI (SR leukemia): > 100 µM
GI50 (MCF7 breast): 1.55 µM
TGI (MCF7 breast): 3.43 µM
GI50 (HCT-116 colon): 2 µM
TGI (HCT-116 colon): 4.52 µM
GI50 (SK-MEL-5 melanoma): 1.48 µM
TGI (SK-MEL-5 melanoma): 2.8 µM
GI50 (BT-549 breast): 1.85 µM
TGI (BT-549 breast): 4.56 µM
GI50 (MALME-3M melanoma): 1.6 µM
TGI (MALME-3M melanoma): 3.13 µM
